Laboratory results as given in patent publication US8097615B2, “Neurofibrillary labels” (Wista Laboratories Ltd., priority 2001, dated 2012).
“Also recorded” adds a separate entry of the source.

How the values were obtained:
[1] = target: T1, tau-tau binding (Homo sapiens, UniProt P10636); assay: Solid-phase tau-tau binding assay (dGA solid phase, dGAE liquid phase), tau Preparation 2; assay type: biochemical; conditions: Preparation 2
T1 construct: a truncated tau protein corresponding to the core fragment and terminating at Ala390-dGA; dGAE which terminates at Glu-391; made in house; host or cells: E. coli BL21 (DE3), pRK172; DE52 flow-through, P11 phosphocellulose, PEG concentration, no heat step (Preparation 2)
Experimental: Preparation 2 differs from Preparation 1 above in the following respects: (1) The concentration of cells at the sonication stage is increased by 5-fold. (2) A batchwise adsorption of non-tau proteins to DE52 is included. (3) The proteins are not subjected to heat treatment. (4) The final step involves concentration using polyethylene glycol.
Escherichia coli is grown in 2×TY medium (Oxoid) supplemented with ampicillin (50 micrograms per ml) to late-logarithmic phase. Cells from 5 liters of culture are harvested by centrifugation and the cell pellets frozen rapidly over liquid nitrogen. The pellets are taken up with 50 mM PIPES (pH 6.8) containing 1 mM EDTA, 1 mM dithiothreitol and 1 mM phenylmethylsulphonylfluoride (PMSF) and bacteria lysed by sonication (2×3 min) at 4 C. The mixture is centrifuged at 10,000 rpm for 20 min. The supernatant is rotated with 1 gram of Whatman DE52 for 3 hr at 4 C. The mixture is separated on a column and the flow-through material that fails to bind to DE52 is incubated for 3 hr at 4 C, with rotation, with 0.4 g of Whatman P11 (freshly regenerated according to manufacturer's recommendations). The column is washed with column buffer (50 mM PIPES, pH 6.8 containing 1 mM EGTA, 5 mM EDTA, 0.2 mM MgCl2, 5 mM β-mercaptoethanol and 1 mM PMSF). Tau protein is eluted stepwise with a 0.1 to 1 M gradient of KCl in column buffer. Fractions containing tau (determined by immunoassay) are pooled and dialysed against 80 mM PIPES (pH6.8) containing 1 mM EGTA, 1 mM MgCl2 and 5 mM β-mercatoethanol, using dialysis tubing with a molecular weight cut-off of 1,000. The dialysate is concentrated by applying polyethylene glycol 8000 to the outside of the sac for 2-3 hr. The final concentration of tau ranged from 3 to 10 mg per ml.
When the proteins dGA and dGAE were prepared as indicated above (“Preparation 2”), the properties of the tau-tau binding assay were altered relative to the properties obtained using the preparative method described in WO96/30766 (“Preparation 1”).
The assay is performed using 96 well PVC plates (Falcon Cat. No. 353912 are used), and the following steps:
1. 50 μl dGA (˜10 μg/ml) in carbonate buffer, incubate 1 h at 37° C.
(Carbonate buffer: 50 mM carbonate bicarbonate, pH 9.6 (Na2CO3 1.59 g/l, NaHCO3 2.93 g/l))
2. Wash plate in 0.05% Tween-20.
3. 200 μl PBS+2% Marvel, incubate 1 h at 37° C.
4. Rinse plate 2× in deionised water, then wash in 0.05% Tween-20.
5. 50 μl dGAE (˜10 μg/ml) plus drug in PBS+1% fish skin gelatin+0.05% Tween-20, incubate 1 h at 37° C.
6. Wash plate in 0.05% Tween-20.
7. 50 μl antibody 423 (1:10 dilution in PBS+2% Marvel), incubate 1 h at 37° C.
8. Rinse plate 2× in deionised water, then wash in 0.05% Tween-20.
9. 50 μl HRP-anti-mouse (1:1000 dilution in PBS+0.05% Tween-20), incubate 1 h at 37° C.
10. Wash plate in 0.05% Tween-20, then rinse 1× with deionised water.
11. 50 μl substrate solution, read immediately initial rate over 2 min in plate reader at OD650.
(Substrate solution: 50 mM sodium acetate, pH 5.0+TMB (1 ml/100 ml of a 10 mg/ml solution in DMSO)+H2O2 (10 μl/100 ml)).

[2] = target: T1, tau-tau binding; assay: Relief of DMMB inhibition of tau-tau binding by ligands (Preparation 2); assay type: biochemical; conditions: for BMax of tau-tau binding: Binding=(BMax×[ligand])/(Kd+[ligand])
Excerpt: 2. using tau proteins prepared in this manner for testing putative ligands in the tau-tau binding assay provided in WO96/30766 to identify substances which have minimal or entirely absent activity as tau-aggregation inhibitors or enhance tau-tau binding at high concentrations; 3. testing putative ligands in the presence of an exemplary potent tau-aggregation inhibitor, such as DMMB, at an inhibitory concentration; 4. putative ligands can be identified by the property that they lack capacity to block tau-tau binding through the repeat domain, but block the inhibitory activity of a potent tau-aggregation inhibitor.
(ii) contacting (a) a tau protein or a derivative thereof containing the tau core fragment bound to a solid phase so as to expose a high affinity tau capture site (e.g. a truncated tau protein corresponding to the core fragment and terminating at Ala390-dGA), with (b) a liquid phase tau protein or derivative thereof capable of binding to the solid phase tau protein or derivative (e.g. dGAE which terminates at Glu-391), and (c) said selected first agent and (d) a second agent known to be tau-tau binding inhibitor, (iii) selecting a first agent which fully or partially relieves the inhibition of binding of the liquid phase tau protein or derivative of (b) to the solid phase tau protein or derivative of (a) by the inhibitor (d).
Similar results are shown for 15 μM DMMB in the presence of increasing concentrations of Primulin (c) and Thiazin Red (d).
For each graph, Tau-Tau binding is shown in the presence of constant concentrations of DMMB co-incubated with Primulin at 0×, 1×, 5×, 10×, 100× the DMMB concentrations shown.
This implies that the Tau-aggregation enhancement effect of these ligands is proportional to the fraction of ligand-binding sites occupied, presumably within the Tau aggregates introduced into the aqueous-phase of the assay. The mean Bmax for both ligands is ˜1.6. That is, the maximum ligand effect is to produce 1.6-fold the Tau-Tau binding signal seen in the absence of any drug. The mean Kd for this effect is ˜15×. That is, for any given concentration of DMMB>4 μM, 50% of maximal enhancement of Tau-Tau binding can be seen when the ligand molar excess is 15-fold relative to the concentration of DMMB.

T1 sequence (P10636 614-708 limits assumed): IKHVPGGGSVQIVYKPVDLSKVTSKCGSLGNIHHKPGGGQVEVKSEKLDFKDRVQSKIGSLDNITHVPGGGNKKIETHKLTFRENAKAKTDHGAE

inhibition of tau-tau binding [1]: no inhibitory activity
BMax of tau-tau binding ([2]; 5 μM DMMB): 1.38
BMax of tau-tau binding ([2]; 25 μM DMMB): 1.67
Structure (SMILES): Cc1ccc2sc(-c3ccc4sc(-c5ccc(N)cc5)nc4c3)nc2c1S(=O)(=O)[O-].[Na+] [primulin]
reversal of inhibitory effect of DMMB on tau-tau binding ([2]; co-incubation with increasing molar excess of ligand): progressively attenuated and reversed; also recorded: completely reversed
